Values of other authors, collected in PMC11998001, “Towards P2X4 Positron Emission Tomography Tracing” (Journal of Medicinal Chemistry, 2025).

Assays:
[1] = parameters: method as in PMID 33125712
tactile allodynia = tested on: tactile allodynia; parameters: method as in PMID 33125712
[2] = pH 7.4
[3] = for MLM stability: mouse, microsomes, 1.5 h
[4] = tested on: NLRP3 Inflammasome in macrophages; parameters: method as in PMID 39805099
[5] = for blood-brain barrier (BBB) permeation of radioligand (in words): in vivo, 18F-radiolabeled form

Structure (SMILES): O=C1CN=C(c2cccc(Br)c2)c2oc3ccccc3c2N1 [5-BDBD]
- water solubility (in words): low water solubility

Structure (SMILES): NS(=O)(=O)c1cc(NC(=O)Cc2ccccc2)ccc1Oc1cccc(Cl)c1 [BAY-1797]
- water solubility (in words): high water solubility
- blood-brain barrier permeation (in words) [1]: does not permeate the blood–brain barrier

Structure (SMILES): CC(C)c1cc(Br)c(NC(=O)Nc2cccnc2)c(Br)c1 [BX-430]
- antagonist potency at the hP2X4 receptor (in words) (hP2X4R; allosteric antagonist): submicromolar

Structure (SMILES): CNCC[C@H](Oc1cccc2ccccc12)c1cccs1 [Duloxetine]
- effect on tactile allodynia (in words) (tactile allodynia): reverse tactile allodynia

Structure (SMILES): Cc1cc(F)ccc1S(=O)(=O)Nc1ccc(N2C(=O)CC(=O)Nc3c2ccc2ccccc32)cc1 [Erlitz 44]
- logD7.4 [2]: 3.59
- stability in mouse microsomes (in words) [3]: higher stability in mouse microsomes
- MLM stability [3]: 93%
- NLRP3 inflammasome activation / interleukin-1β release (in words) [4]: able to block NLRP3 inflammasome activation

Structure (SMILES): Cc1cc(F)ccc1CS(=O)(=O)Nc1ccc(N2C(=O)CC(=O)Nc3c2ccc2ccccc32)cc1 [Erlitz 64]
- logD7.4 [2]: 3.68
- MLM stability [3]: 64%
- NLRP3 inflammasome activation / interleukin-1β release (in words) [4]: able to block NLRP3 inflammasome activation

Structure (SMILES): Cc1cc([18F])ccc1S(=O)(=O)Nc1ccc(N2C(=O)CC(=O)Nc3c2ccc2ccccc32)cc1 [Erlitz [^18F]44]
- in vivo metabolism of radioligand (in words) [5]: rapid, in vivo metabolism
- blood-brain barrier (BBB) permeation of radioligand (in words) [5]: almost no blood–brain barrier (BBB) permeation

Structure (SMILES): Cc1cc([18F])ccc1CS(=O)(=O)Nc1ccc(N2C(=O)CC(=O)Nc3c2ccc2ccccc32)cc1 [Erlitz [^18F]64]
- in vivo metabolism of radioligand (in words) [5]: rapid, in vivo metabolism
- blood-brain barrier (BBB) permeation of radioligand (in words) [5]: almost no blood–brain barrier (BBB) permeation

Structure (SMILES): O=C1CC(=O)N(c2cccc(-c3noc(=S)[nH]3)c2)c2ccc3ccccc3c2N1 [NP-1815-PX]
- water solubility (in words): high potency and water solubility

Structure (SMILES): O=C(OCc1ccccc1)N1c2ccccc2Oc2ccccc21 [PSB-12054]
- IC50 (hP2X4R; representative P2X4 antagonists, Figure 2): 190 nM

Structure (SMILES): Cc1ccc(S(=O)(=O)N2c3ccccc3Oc3ccccc32)cc1 [PSB-12062]
- water solubility (in words): more water-soluble than the first

Structure (SMILES): Fc1ccc([C@@H]2CCNC[C@H]2COc2ccc3c(c2)OCO3)cc1 [Paroxetine]
- effect on tactile allodynia (in words) (tactile allodynia): reverse tactile allodynia
